Source: US8178515B2, “β-hydroxy-γ-aminophosphonates and methods for the preparation and use thereof” (Nucitec S.A. de C.V., priority 2008, dated 2012)

Experiments:
[1] = system: chick embryos; assay: Teratogenicity assay in chick embryos; conditions: for Deaths (embryos / total examined) / Embryonic region affected: Axial skeleton (abnormal embryos / total examined) / Embryonic region affected: CNS (abnormal embryos / total examined) / Embryonic region affected: Heart (abnormal embryos / total examined) / Embryonic region affected: Somites (abnormal embryos / total examined) / Embryonic region affected: Vasculature (abnormal embryos / total examined): 48 h of exposition
Description: A teratogenicity assay was carried out as described by Jelinek et al., Func. Devel. Morph. 4:317-23 (1994). Fertile White Leghorn chicken eggs were obtained from A.L.P.E. S.A. (Puebla, Mexico) and were stored at 6° C. Sixty fertilized eggs were weighed, sterilized, and divided into […]. First group served as a non-treated control. The next three were exposed to the diastereomeric mixture of compound 7 (1, 10, and 100 μM). The last group received caffeine (10 mg/mL) and as positive control. Test solutions (1 mL) were added to the air sac under sterile conditions. Each solution was injected after drilling into the shell at the blunt end of the egg; after injection, the holes were immediately sealed with melted paraffin wax. The eggs were then transferred and maintained in a forced draft incubator at 37.5° C. with a relative humidity of 55% until the desired stage of development was reached.
To determine the concentration dependency of the diastereomeric mixture of compound 7, a histological analysis was carried out. Embryos in each group were fixed in buffered formal saline (pH 7.4), dehydrated, and embedded in paraffin blocks. Paraffin tissue sections of 6 μm were stained with acetocarmine for routine histological examination.

[2] = system: 293Q cells
Description: (§1) Two cell lines were used for this study: 293Q cells derived from normal epithelial cells of human fetal kidney (CRL-1573 ATCC) and WRL-68 cells derived from epithelial cells of human liver (CRL-48 ATCC). Cell lines were cultured in minimal essential medium (MEM, GIBCO BRL Inc., Grand Island, N.Y.), supplemented with nonessential amino acids (GIBCO BRL Inc., Grand Island, N.Y.), 10% fetal calf serum (GIBCO BRL Inc., Grand Island, N.Y.), 1-glutamine (2 mol/L), and antibiotics. Cells were plated in 100-mm culture dishes (10^6 cells/dish), and maintained at 37° C. under an atmosphere of 5% CO2 in humidified air. Subcultures were obtained by trypsinization (0.025% trypsin solution containing 0.01% N,N-diethyldithiocarbamic acid sodium salt, EDTA). For cytological investigation, 10^5 cells per mL of MEM medium were used. […] After incubation of the cells with the extract, they were collected for further cytological investigations.
(§2) Cells were incubated in 96-well plates. After 24 h, the medium was removed; the cells were washed twice with PBS and then incubated with analog. […] Cell viability was measured by a 3-(4,5-dimethylthiazol-2-yl)-2,5-diphenyltetrazolium bromide (MTT) assay (Wang et al., Journal Ocular. Pharm. Ther. 12: 35-43 (1996)). […] When the blue crystals were dissolved, the optical density was determined on a microplate reader at 450 nm. […]

[3] = system: WRL-68 cells
Description: as §1, §2

[4] = system: WRL-68 cells; assay: Utilization of glucose in hepatic cells, in vitro hyperglycemia model (glucose and glycogen levels); type: cell-based, human; conditions: 24 hours; for reduction of extracellular glucose levels: conditioned media, 30 mM D-glucose medium
Description: WRL-68 cells were thawed and maintained in culture with Minimal Essential Medium (Gibco BRL) containing 4 mM Glutamine, 1% non essential aminoacids (Gibco BRL), 10% Fetal Calf Serum (FCS), and 100 μg/ml of ampicillin. WRL-68 cells were seeded at […] in complete media in 75 cm^2 cell culture flasks, cells were maintained for 24 hours at 37° C. under an atmosphere of 5% CO2. The medium was changed after 24 hr. Cells were passaged by trypsinization using a 0.025% trypsin solution containing 0.01% N,N,-di-ethyldithiocarbamic acid sodium salt (EDTA). In order to evaluate the effect of analog of carnitine on utilization of glucose levels a model of hyperglycemia in vitro (Nakajina et al., J. Biol. Chem. 275:20880-20886 (2000)) was developed. Two days after plating, the medium was changed to F-12K containing 7 mM D-glucose and 10% fetal bovine serum, and the culture was continued for 2 more days. The cells were then cultured in serum-free F-12K medium containing 30 mM D-glucose for 24 h. Cells were treated with the diastereomeric mixture of compound 7 at concentrations of 0.01, 0.1, 1,10, 100 μM, and 1 mM and 2 mM during 24 hours. Samples of conditioned media and cell lysates were kept to […]. Glucose and glycogen levels were measured by using a Glucose PAP-SL Kit (Tech, USA) and glycogen assay kit (Biovision Research Products, California, USA).

CC(C)C[C@@H]([C@@H](O)CP(=O)(O)O)[N+](C)(C)C.[I-] [compound 7, (2R,3S)-(2-hydroxy-5-methyl-3-trimethylamonium-hexyl)-phosphonic acid; iodide]
Deaths (embryos / total examined) ([1]; 1 μM): 0/10
Embryonic region affected: Axial skeleton (abnormal embryos / total examined) ([1]; 1 μM): 0/10
Embryonic region affected: CNS (abnormal embryos / total examined) ([1]; 1 μM): 0/10
Embryonic region affected: Heart (abnormal embryos / total examined) ([1]; 1 μM): 0/10
Embryonic region affected: Somites (abnormal embryos / total examined) ([1]; 1 μM): 0/10
Embryonic region affected: Vasculature (abnormal embryos / total examined) ([1]; 1 μM): 0/10
Deaths (embryos / total examined) ([1]; 100 μM): 0/10
Embryonic region affected: Axial skeleton (abnormal embryos / total examined) ([1]; 100 μM): 0/10
Embryonic region affected: CNS (abnormal embryos / total examined) ([1]; 100 μM): 0/10
Embryonic region affected: Heart (abnormal embryos / total examined) ([1]; 100 μM): 0/10
Embryonic region affected: Somites (abnormal embryos / total examined) ([1]; 100 μM): 0/10
Embryonic region affected: Vasculature (abnormal embryos / total examined) ([1]; 100 μM): 0/10
Deaths (embryos / total examined) ([1]; 1 mM): 0/10
Embryonic region affected: Axial skeleton (abnormal embryos / total examined) ([1]; 1 mM): 0/10
Embryonic region affected: CNS (abnormal embryos / total examined) ([1]; 1 mM): 0/10
Embryonic region affected: Heart (abnormal embryos / total examined) ([1]; 1 mM): 0/10
Embryonic region affected: Somites (abnormal embryos / total examined) ([1]; 1 mM): 0/10
Embryonic region affected: Vasculature (abnormal embryos / total examined) ([1]; 1 mM): 0/10

Cn1c(=O)c2c(ncn2C)n(C)c1=O [Caffeine, caffeine, reference compound]
Deaths (embryos / total examined) ([1]; positive control, 10 mg/mL): 2/10
Embryonic region affected: Axial skeleton (abnormal embryos / total examined) ([1]; positive control, 10 mg/mL): 10/10
Embryonic region affected: CNS (abnormal embryos / total examined) ([1]; positive control, 10 mg/mL): 8/10
Embryonic region affected: Heart (abnormal embryos / total examined) ([1]; positive control, 10 mg/mL): 8/10
Embryonic region affected: Somites (abnormal embryos / total examined) ([1]; positive control, 10 mg/mL): 8/10
Embryonic region affected: Vasculature (abnormal embryos / total examined) ([1]; positive control, 10 mg/mL): 6/10

CC(C)CC(C(O)CP(=O)(O)O)[N+](C)(C)C.[I-] (single isomer, unassigned) [diastereomeric mixture of compound 7]
alterations in embryos (histological analysis) ([1]; in vivo): No alterations
effects on cell proliferation (MTT) [2]: did not show citotoxicity or effects on cell proliferation
effects on cell proliferation (MTT) [3]: did not show citotoxicity or effects on cell proliferation
reduction of extracellular glucose levels ([4]; 1 μM): 16%
reduction of extracellular glucose levels ([4]; 10 μM): 18%
reduction of extracellular glucose levels ([4]; 100 μM): 23%
reduction of extracellular glucose levels ([4]; 1 mM): 30%
cellular glycogen levels ([4]; 2 mM): increase
reduction of extracellular glucose levels ([4]; 2 mM): 32%
changes in cellular glucose ([4]; any concentration (0.01 μM to 2 mM)): No changes
